The values below are quoted from earlier work in patent publication US8415449B2, “Bioresorbable polymers synthesized from monomer analogs of natural metabolites” (Rutgers, The State University of New Jersey, priority 2009, dated 2013).

Molecules are shown by their SMILES.

For this series the following is noted: as part of the clinical evaluation of the sebacic acid anhydride copolymer.

Take `O=C(O)CCCCCCCCC(=O)O` [sebacic acid]: the toxicity finding entry is reported as “nontoxic”.
